Test results taken from US7947727B2, “Compounds” (GlaxoGroupLimited, priority 2006, dated 2011).

system: NFκB activity; test: Glucocorticoid Mediated Transrepression of NFκB Activity (A549 ELAM promoter alkaline phosphatase reporter); assay type: cell-based; details: Human A549 lung epithelial cells, 3 ng/ml human recombinant TNFα, 16 hours, read-out: pEC50, transrepression of NFκB activity (converted)
From the text: Human A549 lung epithelial cells were engineered to contain a secreted placental alkaline phosphatase gene under the control of the distal region of the NFκB dependent ELAM promoter as previously described in Ray, K. P., Farrow, S., Daly, M., Talabot, F. and Searle, N. “Induction of the E-selectin promoter by interleukin 1 and tumour necrosis factor alpha, and inhibition by glucocorticoids” Biochemical Journal (1997) 328: 707-15.
Compounds were solvated and diluted in DMSO, and transferred directly into assay plates such that the final concentration of DMSO was 0.7%. Following the addition of cells (40K per well), plates were incubated for 1 hour prior to the addition of 3 ng/ml human recombinant TNFα. Following continued incubation for 16 hours, alkaline phosphatase activity was determined by measuring the change in optical density at 405 nm with time following the addition of 0.7 volumes of assay buffer (1 mg/ml p-nitrophenylphosphate dissolved in 1M diethanolamine, 0.28M NaCl, 0.5 mM MgCl2). Dose response curves were constructed from which EC50 values were estimated.

EC50, ≤ 10 nM:
CCN(CC(O)(CNc1cccc2c1cnn2-c1ccccc1)C(F)(F)F)C(=O)c1ccccc1F (single isomer, unassigned) [Example 3A, N-Ethyl-2-fluoro-N-(3,3,3-trifluoro-2-hydroxy-2-{[(1-phenyl-1H-indazol-4-yl)amino]methyl}propyl)benzamide]
CCN(CC(O)(CNc1cccc2c1cnn2-c1ccc(F)cc1)C(F)(F)F)C(=O)c1ccccc1F (single isomer, unassigned) [Example 7A, N-Ethyl-2-fluoro-N-[3,3,3-trifluoro-2-({[1-(4-fluorophenyl)-1H-indazol-4-yl]amino}methyl)-2-hydroxypropyl]benzamide]
CCN(CC(O)(CNc1cccc2c1cnn2-c1ccc(F)cc1)C(F)(F)F)C(=O)c1ccccc1C (single isomer, unassigned) [Example 6A, N-Ethyl-2-methyl-N-[3,3,3-trifluoro-2-({[1-(4-fluorophenyl)-1H-indazol-4-yl]amino}methyl)-2-hydroxypropyl]benzamide]
CCN(CC(O)(CNc1cccc2c1cnn2-c1ccc(F)cc1)C(F)(F)F)C(=O)c1ccccc1F (stereo not shown) [Example 7, N-Ethyl-2-fluoro-N-[3,3,3-trifluoro-2-({[1-(4-fluorophenyl)-1H-indazol-4-yl]amino}methyl)-2-hydroxypropyl]benzamide]
